Measurements from EP2396329B1, “COMPOUNDS FOR THE TREATMENT OF HEPATITIS C” (priority 2009, dated 2010).
Like-named read-outs stand apart in the source and are kept apart here.

Tests used:
HCV replicon = HCV replicon assay (FRET or luciferase readout); type: cell-based
Excerpt: FRET Assay Preparation. To perform the HCV FRET screening assay, 96-well cell culture plates were used. The FRET peptide (Anaspec, Inc.) (Taliani et al., Anal. Biochem. 1996, 240, 60-67) contains a fluorescence donor, EDANS, near one end of the peptide and an acceptor, DABCYL, near the other end. The fluorescence of the peptide is quenched by […] resonance energy transfer (RET) between the donor and the acceptor, but as the NS3 protease cleaves the peptide the products are released from RET quenching and the fluorescence of the donor becomes apparent. The assay reagent was made as follows: 5X cell Luciferase cell culture lysis reagent from Promega (#E153A) diluted to 1X with dH2O, NaCl added to 150 mM final, the FRET peptide diluted to 20 µM final from a 2 mM stock.
To prepare plates, HCV replicon cells, with or without a Renilla luciferase reporter gene, were trypsinized and placed into each well of a 96-well plate with titrated test compounds added in columns 3 through 12; columns 1 and 2 contained a control compound (HCV protease inhibitor), and the bottom row contained cells without compound. The plates were then placed in a CO2 incubator at 37 °C.
Assays. Subsequent to addition of the test compounds described above (FRET Assay Preparation), at various times the plate was removed and Alamar blue solution (Trek Diagnostics, #00-100) was added per well as a measure of cellular toxicity. After reading in a Cytoflour 4000 instrument (PE Biosystems), plates were rinsed with PBS and then used for FRET assay by the addition of 30 ul of the FRET peptide assay reagent described above (FRET Assay Preparation) per well. The plate was then placed into the Cytoflour 4000 instrument which had been set to 340 excite/490 emission, automatic mode for 20 cycles and the plate read in a kinetic mode. Typically, the signal to noise using an endpoint analysis after the reads was at least three-fold. Alternatively, after Alamar blue reading, plates were rinsed with PBS, 50 ul of DMEM (high glucose) without phenol red was added and plates were then used for luciferase assay using the Promega Dual-Glo Luciferase Assay System.
Compound analysis was determined by quantification of the relative HCV replicon inhibition and the relative cytotoxicity values. To calculate cytoxicity values, the average Alamar Blue fluorescence signals from the control wells were set as 100% non-toxic. The individual signals in each of the compound test wells were then divided by the average control signal and multiplied by 100% to determine […]. To calculate the HCV replicon inhibition values, an average background value was obtained from the two wells containing the highest amount of HCV protease inhibitor at the end of the assay period. These numbers were similar to those obtained from naïve Huh-7 cells.
The background numbers were then subtracted from the average signal obtained from the control wells and this number was used as 100% activity. The individual signals in each of the compound test wells were then divided by the averaged control values after background subtraction and multiplied by 100% to determine percent activity. EC50 values for a protease inhibitor titration were calculated as the concentration which caused a 50% reduction in FRET or luciferase activity. The two numbers generated for the compound plate, percent cytoxicity and percent activity were used to determine compounds of interest for further analysis.

HCV NS5B = biological target: T1, HCV NS5B (Hepatitis C virus genotype 1b, UniProt Q9WMX2); assay: HCV NS5B RdRp enzyme assay (standard or modified); type: biochemical
T1 construct: The protein was expressed with an 18 amino acid C-terminal truncation to enhance the solubility; made in house; host or cells: E. coli BL21(DE3)
Method: HCV NS5B RdRp cloning, expression, and purification. The cDNA encoding the NS5B protein of HCV, genotype 1b, was cloned into the pET21a expression vector. The protein was expressed with an 18 amino acid C-terminal truncation to enhance the solubility. The E. coli competent cell line BL21(DE3) was used for expression of the protein. Cultures were grown at 37 °C for ~ 4 hours until the cultures reached an optical density of 2.0 at 600 nm. The cultures were cooled to 20 °C and induced with I mM IPTG. Fresh ampicillin was added to a final concentration of 50 µg/ml and the cells were grown overnight at 20 °C.
Cell pellets (3L) were lysed for purification to yield 15-24 mgs of purified NS5B. The lysis buffer consisted of 20 mM Tris-HCl, pH 7.4, 500 mM NaCl, 0.5% triton X-100, 1 mM DTT, 1mM EDTA, 20% glycerol, 0.5 mg/ml lysozyme, 10 mM MgCl2, 15 ug/ml deoxyribonuclease I, and Complete TM protease inhibitor tablets (Roche). After addition of the lysis buffer, frozen cell pellets were resuspended using a tissue homogenizer. To reduce the viscosity of the sample, aliquots of the lysate were sonicated on ice using a microtip attached to a Branson sonicator. The sonicated lysate was centrifuged at 100,000 x g for 1hr at 4 °C and filtered through a 0.2 µm filter unit (Corning).
The protein was purified using three sequential chromatography steps: Heparin sepharose CL-6B, polyU sepharose 4B, and Hitrap SP sepharose (Pharmacia). The chromatography buffers were identical to the lysis buffer but contained no lysozyme, deoxyribonuclease I, MgCl2 or protease inhibitor and the NaCl concentration of the buffer was adjusted according to the requirements for charging the protein onto the column. Each column was eluted with a NaCl gradient which varied in length from 5-50 column volumes depending on the column type. After the final chromatography step, the resulting purity of the enzyme is >90% based on SDS-PAGE analysis. The enzyme was aliquoted and stored at -80 °C.
Standard HCV NS5B RdRp enzyme assay. HCV RdRp genotype 1b assays were run in a final volume of 60 µl in 96 well plates (Costar 3912). The assay buffer is composed of 20 mM Hepes, pH 7.5, 2.5 mM KCI, 2.5 mM MgCl2, 1 mM DTT, 1.6 U RNAse inhibitor (Promega N2515), 0.1 mg/ml BSA (Promega R3961), and 2 % glycerol. All compounds were serially diluted (3-fold) in DMSO and diluted further in water such that the final concentration of DMSO in the assay was 2%. HCV RdRp genotype Ib enzyme was used at a final concentration of 28 nM. A polyA template was used at.6 nM, and a biotinylated oligo-dT12 primer was used at 180 nM final concentration. Template was obtained commercially (Amersham 27-4110). Biotinylated primer was prepared by Sigma Genosys. 3H-UTP was used at 0.6 µCi (0.29 µM total UTP). Reactions were initiated by the addition of enzyme, incubated at 30 °C for 60 min, and stopped by adding 25 µl of 50 mM EDTA containing SPA beads (4 µg/µl, Amersham RPNQ 0007). Plates were read on a Packard Top Count NXT after > 1hr incubation at room temperature.
Modified HCV NS5B RdRp enzyme assay. A modified enzyme assay was performed essentially as described for the standard enzyme assay except for the following: The biotinylated oligo dT12 primer was precaptured on streptavidin-coated SPA beads by mixing primer and beads in assay buffer and incubating at room temperature for one hour. Unbound primer was removed after centrifugation. The primer-bound beads were resuspended in 20 mM Hepes buffer, pH 7.5 and used in the assay at final concentrations of 20 nM primer and 0.67 µg/µl beads. Order of addition in the assay: enzyme (14 nM) was added to diluted compound followed by the addition of a mixture of template (0.2 nM), 3H-UTP (0.6 µCi, 0.29 µM), and primer-bound beads, to initiate the reaction; concentrations given are final. Reactions were allowed to proceed for 4 hours at 30° C.
IC50 values for compounds were determined using seven different [I]. […]

[1] = Hepatitis C virus, HCV replicon cells, FRET or luciferase activity, read-out: EC50
[2] = HCV NS5B RdRp enzyme, genotype 1b, read-out: IC50

T1 sequence (Q9WMX2 2420-2992): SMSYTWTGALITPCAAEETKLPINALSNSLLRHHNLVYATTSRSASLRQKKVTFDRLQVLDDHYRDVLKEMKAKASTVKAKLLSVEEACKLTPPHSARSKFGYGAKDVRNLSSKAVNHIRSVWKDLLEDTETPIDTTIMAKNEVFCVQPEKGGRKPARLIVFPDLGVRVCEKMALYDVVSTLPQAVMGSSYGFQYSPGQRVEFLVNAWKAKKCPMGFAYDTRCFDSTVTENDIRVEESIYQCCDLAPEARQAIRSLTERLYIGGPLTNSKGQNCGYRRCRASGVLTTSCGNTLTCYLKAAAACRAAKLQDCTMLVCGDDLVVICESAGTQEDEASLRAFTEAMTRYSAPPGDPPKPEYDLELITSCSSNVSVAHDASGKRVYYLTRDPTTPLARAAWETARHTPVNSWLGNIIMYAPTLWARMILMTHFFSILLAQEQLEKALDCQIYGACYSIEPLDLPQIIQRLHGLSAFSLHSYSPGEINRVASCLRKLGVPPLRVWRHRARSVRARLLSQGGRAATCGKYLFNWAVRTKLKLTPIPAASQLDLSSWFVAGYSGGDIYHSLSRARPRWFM

Compound | EC50 (HCV replicon; [1]) [µM] | EC50 (HCV replicon; Hepatitis C virus) [µM] | IC50 (HCV NS5B) [µM] | other results
CCn1nc(C)c(C2=Cc3cc(OC)ccc3-c3c(C4CCCCC4)c4ccc(C(=O)NS(=O)(=O)C(C)C)cc4n3C2)c1C(=O)N1C[C@@H](C)O[C@H](C)C1 | 0.001 to 0.5 | – | – | IC50 (HCV NS5B; [2]): 0.001 to 0.5 µM
CCn1nc(C)c(C2=Cc3cc(OC)ccc3-c3c(C4CCCCC4)c4ccc(C(=O)NS(=O)(=O)C(C)C)cc4n3C2)c1C(=O)N1CCN(C)CC1 | 0.001 to 0.5 | – | – | IC50 (HCV NS5B; [2]): 0.001 to 0.5 µM
CCn1nc(C)c(C2=Cc3cc(OC)ccc3-c3c(C4CCCCC4)c4ccc(C(=O)NS(=O)(=O)C(C)C)cc4n3C2)c1C(=O)N1C[C@@H](C)N(C)[C@@H](C)C1 | 0.001 to 0.5 | – | – | IC50 (HCV NS5B; [2]): 0.001 to 0.5 µM
CCn1ncc(C(=O)N2C3CCCC2COC3)c1C1=Cc2cc(OC)ccc2-c2c(C3CCCCC3)c3ccc(C(=O)NS(=O)(=O)C(C)C)cc3n2C1 | – | 0.001 to 0.5 | – | –
CCn1ncc(C(=O)N2C[C@@H](C)N(C)[C@@H](C)C2)c1C1=Cc2cc(OC)ccc2-c2c(C3CCCCC3)c3ccc(C(=O)NS(=O)(=O)C(C)C)cc3n2C1 | 0.001 to 0.5 | – | – | IC50 (HCV NS5B; [2]): 0.001 to 0.5 µM
CCn1ncc(C(=O)N2C3CCC2CN(C)C3)c1C1=Cc2cc(OC)ccc2-c2c(C3CCCCC3)c3ccc(C(=O)NS(=O)(=O)C(C)C)cc3n2C1 | – | 0.001 to 0.5 | 0.001 to 0.5 | –
COc1ccc2c(c1)C=C(c1c(C(=O)N3CC4CCC(C3)O4)cnn1CC(F)(F)F)Cn1c-2c(C2CCCCC2)c2ccc(C(=O)NS(=O)(=O)C(C)C)cc21 | – | 0.001 to 0.5 | 0.001 to 0.5 | –
COc1ccc2c(c1)C=C(c1c(C(=O)N3C4COCC3COC4)cnn1CC(F)(F)F)Cn1c-2c(C2CCCCC2)c2ccc(C(=O)NS(=O)(=O)C(C)C)cc21 | – | 0.001 to 0.5 | 0.001 to 0.5 | –
COc1ccc2c(c1)C=C(c1c(C(=O)N3CC4CC3CO4)cnn1CC(F)(F)F)Cn1c-2c(C2CCCCC2)c2ccc(C(=O)NS(=O)(=O)C(C)C)cc21 (stereo not shown) | – | 0.001 to 0.5 | – | IC50 (HCV NS5B; [2]): 0.001 to 0.5 µM
COc1ccc2c(c1)C=C(c1c(C(=O)N3CCN(C)CC3)cnn1CC(F)(F)F)Cn1c-2c(C2CCCCC2)c2ccc(C(=O)NS(=O)(=O)C(C)C)cc21 | 0.001 to 0.5 | – | – | IC50 (HCV NS5B; [2]): 0.001 to 0.5 µM
COc1ccc2c(c1)C=C(c1c(C(=O)N3C4CCCC3COC4)cnn1C(C)C)Cn1c-2c(C2CCCCC2)c2ccc(C(=O)NS(=O)(=O)C(C)C)cc21 | – | 0.001 to 0.5 | 0.001 to 0.5 | –
COc1ccc2c(c1)C=C(c1c(C(=O)N3CC4CCC(C3)O4)c(C)nn1C(C)C)Cn1c-2c(C2CCCCC2)c2ccc(C(=O)NS(=O)(=O)C(C)C)cc21 | – | 0.001 to 0.5 | – | –
COc1ccc2c(c1)C=C(c1c(C(=O)N3C4CCC3CN(C)C4)c(C)nn1C(C)C)Cn1c-2c(C2CCCCC2)c2ccc(C(=O)NS(=O)(=O)C(C)C)cc21 | – | 0.001 to 0.5 | 0.001 to 0.5 | –
CCn1nc(C)c(C(=O)N2C3CCC2CN(C)C3)c1C1=Cc2cc(OC)ccc2-c2c(C3CCCCC3)c3ccc(C(=O)NS(=O)(=O)C(C)C)cc3n2C1 | – | 0.001 to 0.5 | 0.001 to 0.5 | –
CCn1nc(C)c(C(=O)N2C[C@@H](C)N(C)[C@@H](C)C2)c1C1=Cc2cc(OC)ccc2-c2c(C3CCCCC3)c3ccc(C(=O)NS(=O)(=O)C(C)C)cc3n2C1 | 0.001 to 0.5 | – | – | –
CCn1ncc(C(=O)N2CC3CCC(C2)O3)c1C1=Cc2cc(OC)ccc2-c2c(C3CCCCC3)c3ccc(C(=O)NS(=O)(=O)C(C)C)cc3n2C1 | – | 0.001 to 0.5 | – | –
CCn1ncc(C(=O)N2CC3CCC(C2)N3C)c1C1=Cc2cc(OC)ccc2-c2c(C3CCCCC3)c3ccc(C(=O)NS(=O)(=O)C(C)C)cc3n2C1 | – | 0.001 to 0.5 | 0.001 to 0.5 | –
CCn1nc(C)c(C(=O)N2CC3CCC(C2)N3C)c1C1=Cc2cc(OC)ccc2-c2c(C3CCCCC3)c3ccc(C(=O)NS(=O)(=O)C(C)C)cc3n2C1 | – | 0.001 to 0.5 | – | –
CCn1nc(C)c(C(=O)N2C3CCCC2COC3)c1C1=Cc2cc(OC)ccc2-c2c(C3CCCCC3)c3ccc(C(=O)NS(=O)(=O)C(C)C)cc3n2C1 | – | 0.001 to 0.5 | 0.001 to 0.5 | –
CCn1nc(C)c(C(=O)N2CCO[C@H](COC)C2)c1C1=Cc2cc(OC)ccc2-c2c(C3CCCCC3)c3ccc(C(=O)NS(=O)(=O)C(C)C)cc3n2C1 | 0.001 to 0.5 | – | – | –
COc1ccc2c(c1)C=C(c1c(C(=O)N3C4CCC3CN(C)C4)ncn1C(C)C)Cn1c-2c(C2CCCCC2)c2ccc(C(=O)NS(=O)(=O)C(C)C)cc21 | – | 0.001 to 0.5 | 0.001 to 0.5 | –
COc1ccc2c(c1)C=C(c1c(C(=O)N3C4CCC3CN(C)C4)nnn1C(C)C)Cn1c-2c(C2CCCCC2)c2ccc(C(=O)NS(=O)(=O)N(C)C)cc21 | – | 0.001 to 0.5 | 0.001 to 0.5 | –
COc1ccc2c(c1)C=C(c1nn(C(C)C)c(C)c1C(=O)N1C[C@@H](C)O[C@@H](C)C1)Cn1c-2c(C2CCCCC2)c2ccc(C(=O)NS(=O)(=O)C(C)C)cc21 [drawing 151] | 0.001 to 0.5 | – | – | –
COc1ccc2c(c1)C=C(c1nn(C(C)C)c(C)c1C(=O)N1C[C@@H](C)O[C@@H](C)C1)Cn1c-2c(C2CCCCC2)c2ccc(C(=O)NS(=O)(=O)C(C)C)cc21 [drawing 156] | – | – | – | EC50 (HCV replicon; HCV replicon cells, FRET or luciferase activity, read-out: EC50): 0.001 to 0.5 µM
